{"source": "patent US8445676B2", "about": "“Pyrrolotriazine kinase inhibitors” (Bristol-Myers Squibb Company, priority 2008, dated 2013)", "format_in_all_cases": "biochemical", "key": {"JAK2": {"target": "JAK2 (Homo sapiens, UniProt O60674)", "sequence (O60674 whole entry)": "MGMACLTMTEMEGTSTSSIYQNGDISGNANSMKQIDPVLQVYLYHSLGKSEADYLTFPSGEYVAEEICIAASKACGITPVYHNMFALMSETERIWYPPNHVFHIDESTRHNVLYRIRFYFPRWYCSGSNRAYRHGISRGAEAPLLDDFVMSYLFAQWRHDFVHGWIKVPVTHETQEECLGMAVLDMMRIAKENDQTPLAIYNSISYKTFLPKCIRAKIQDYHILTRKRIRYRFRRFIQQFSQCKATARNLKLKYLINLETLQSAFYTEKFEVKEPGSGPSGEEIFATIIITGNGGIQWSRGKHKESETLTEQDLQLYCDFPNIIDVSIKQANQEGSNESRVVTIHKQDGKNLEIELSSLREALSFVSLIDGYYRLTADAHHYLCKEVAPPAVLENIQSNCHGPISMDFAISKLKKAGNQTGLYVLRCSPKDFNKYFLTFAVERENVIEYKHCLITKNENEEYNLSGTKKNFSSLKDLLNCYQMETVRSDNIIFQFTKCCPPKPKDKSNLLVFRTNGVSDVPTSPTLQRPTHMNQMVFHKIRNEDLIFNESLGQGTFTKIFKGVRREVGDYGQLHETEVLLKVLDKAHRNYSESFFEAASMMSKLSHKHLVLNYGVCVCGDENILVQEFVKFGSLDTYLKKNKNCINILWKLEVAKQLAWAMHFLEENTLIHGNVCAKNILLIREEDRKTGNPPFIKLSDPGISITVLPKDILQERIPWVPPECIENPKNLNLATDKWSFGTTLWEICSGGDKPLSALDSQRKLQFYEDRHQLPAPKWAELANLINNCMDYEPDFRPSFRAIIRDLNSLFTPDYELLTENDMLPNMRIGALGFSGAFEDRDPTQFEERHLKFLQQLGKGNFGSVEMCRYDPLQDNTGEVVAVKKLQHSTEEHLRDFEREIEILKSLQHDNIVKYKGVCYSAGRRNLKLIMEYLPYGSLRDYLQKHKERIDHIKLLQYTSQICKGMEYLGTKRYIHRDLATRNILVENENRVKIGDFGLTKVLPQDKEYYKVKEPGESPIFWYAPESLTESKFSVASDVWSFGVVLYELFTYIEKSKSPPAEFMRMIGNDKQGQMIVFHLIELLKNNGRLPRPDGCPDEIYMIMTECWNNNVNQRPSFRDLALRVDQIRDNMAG", "assay": "JAK2 Tyrosine Kinase Assay", "how_it_was_run": "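Reaction of JAK2 with fluorescent substrate run 60 min at room temperature and stopped with EDTA. Substrate and phosphorylated product separated electrophoretically on a Caliper LabChip. Compounds tested at eleven concentrations in duplicate, with IC50 from non-linear regression.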"}, "JAK3 [1]": {"target": "T1, JAK3 (Homo sapiens, UniProt P52333)", "T1 sequence (P52333 1-1124)": "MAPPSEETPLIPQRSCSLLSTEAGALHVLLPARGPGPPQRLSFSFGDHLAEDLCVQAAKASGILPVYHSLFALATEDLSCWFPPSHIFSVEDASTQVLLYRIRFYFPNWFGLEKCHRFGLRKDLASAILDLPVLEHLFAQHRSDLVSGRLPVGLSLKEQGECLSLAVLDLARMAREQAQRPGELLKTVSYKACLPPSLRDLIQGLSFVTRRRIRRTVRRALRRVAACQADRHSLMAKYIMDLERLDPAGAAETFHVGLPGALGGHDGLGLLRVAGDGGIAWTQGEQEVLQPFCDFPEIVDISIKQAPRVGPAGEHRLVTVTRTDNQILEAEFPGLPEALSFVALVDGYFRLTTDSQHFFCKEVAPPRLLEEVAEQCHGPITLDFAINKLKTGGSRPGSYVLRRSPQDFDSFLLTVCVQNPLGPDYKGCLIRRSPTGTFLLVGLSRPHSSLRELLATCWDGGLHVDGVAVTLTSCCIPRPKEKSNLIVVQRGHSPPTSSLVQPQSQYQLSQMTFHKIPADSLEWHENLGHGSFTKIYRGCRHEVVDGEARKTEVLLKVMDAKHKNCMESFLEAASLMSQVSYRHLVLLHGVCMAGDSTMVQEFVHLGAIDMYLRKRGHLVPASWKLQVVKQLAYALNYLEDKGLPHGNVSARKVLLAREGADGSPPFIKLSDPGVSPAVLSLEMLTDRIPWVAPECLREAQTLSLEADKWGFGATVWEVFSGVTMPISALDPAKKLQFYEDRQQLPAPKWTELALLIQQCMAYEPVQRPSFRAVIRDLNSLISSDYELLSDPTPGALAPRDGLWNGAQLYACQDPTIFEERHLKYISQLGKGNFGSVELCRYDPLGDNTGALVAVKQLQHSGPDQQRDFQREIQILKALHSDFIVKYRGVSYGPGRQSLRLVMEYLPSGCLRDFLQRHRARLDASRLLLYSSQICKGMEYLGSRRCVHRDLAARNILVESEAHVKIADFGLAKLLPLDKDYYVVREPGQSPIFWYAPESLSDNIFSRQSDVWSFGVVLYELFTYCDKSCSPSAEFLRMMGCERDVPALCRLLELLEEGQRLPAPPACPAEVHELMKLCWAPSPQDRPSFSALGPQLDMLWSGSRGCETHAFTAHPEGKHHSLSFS", "assay": "JAK3 Tyrosine Kinase Assay", "conditions": "prior-art compound, stated in the background; read-out: IC50 against JAK3"}, "JAK3 [2]": {"target": "T1, JAK3", "assay": "JAK3 Tyrosine Kinase Assay", "conditions": "ATP 8 μM; JAK3 2.5 nM; 60 min room temperature", "method": "JAK3 Tyrosine Kinase Assay\nThe assays were performed in V-bottom 384-well plates. […] The reaction was initiated by the combination of JAK3 with substrates and test compounds. The reaction was incubated at room temperature for 60 min. and terminated by adding 45 μl of 35 mM EDTA to each sample. The reaction mixture was analyzed on the Caliper LabChip 3000 by electrophoretic separation of the fluorescent substrate and phosphorylated product. […] The final concentration of reagents in the assays is ATP, 8 μM; JAK3 fluorescent peptide, 1.5 μM; JAK3, 2.5 nM; and DMSO, 1.6%. […] Compounds were dissolved at 10 mM in dimethylsulfoxide (DMSO) and evaluated at eleven concentrations, each in duplicate. IC50 values were derived by non-linear regression analysis."}, "[3]": {"conditions": "ATP 30 μM, JAK2 1 nM, 60 min room temperature, read-out: Jak2(IC50)"}}, "note": "Read-outs that look alike come from different tables or passages of the source.", "data": [{"smiles": "Cc1cc(Nc2nc(N3CCNCC3)nn3cccc23)[nH]n1", "note": "[Example 74 of the publication, reference compound]", "values": [{"measurement": "IC50", "setting": "JAK2; prior-art compound, stated in the background, read-out: IC50 against JAK2", "result": 31, "unit": "nM"}, {"measurement": "IC50", "setting": "JAK3 [1]", "result": 460, "unit": "nM"}]}, {"smiles": "CCC(CO)(CO)C(=O)N1CCN(c2nc(Nc3cc(C)[nH]n3)c3cccn3n2)CC1", "note": "[Example 152, 2-ethyl-2-((4-(4-((5-methyl-1H-pyrazol-3-yl)amino)pyrrolo[2,1-f] [1,2,4]triazin-2-yl)-1-piperazinyl)carbonyl)-1,3-propanediol]", "values": [{"measurement": "IC50", "setting": "JAK3 [2]", "result": 2360, "unit": "nM"}, {"measurement": "IC50", "setting": "JAK2; [3]", "result": 300, "unit": "nM"}]}, {"smiles": "Cc1cc(Nc2nc(N3CCN(C(=O)C(C)(C)N(C)C(=O)OC(C)(C)C)CC3)nn3cccc23)n[nH]1", "note": "[Example 158, tert-butyl(1,1-dimethyl-2-(4-(4-((5-methyl-1H-pyrazol-3-yl)amino)pyrrolo[2,1-f] [1,2,4]triazin-2-yl)-1-piperazinyl)-2-oxoethyl)methylcarbamate]", "values": [{"measurement": "IC50", "setting": "JAK3 [2]", "result": 1740, "unit": "nM"}, {"measurement": "IC50", "setting": "JAK2; [3]", "result": 300, "unit": "nM"}]}, {"smiles": "CCC(O)(CC)C(=O)N1CCN(c2nc(Nc3cc(C)[nH]n3)c3cccn3n2)CC1", "note": "[Example 164, 3-((4-(4-((5-methyl-1H-pyrazol-3-yl)amino)pyrrolo[2,1-f] [1,2,4]triazin-2-yl)-1-piperazinyl)carbonyl)-3-pentanol]", "values": [{"measurement": "IC50", "setting": "JAK3 [2]", "result": 1490, "unit": "nM"}, {"measurement": "IC50", "setting": "JAK2; [3]", "result": 240, "unit": "nM"}]}, {"smiles": "Cc1cc(Nc2nc(N3CCN(C(=O)C(C)(C)C)CC3)nn3cccc23)n[nH]1", "note": "[Example 168, 2-(4-(2,2-dimethylpropanoyl)-1-piperazinyl)-N-(5-methyl-1H-pyrazol-3-yl)pyrrolo[2,1-f][1,2,4]triazin-4-amine]", "values": [{"measurement": "IC50", "setting": "JAK3 [2]", "result": 210, "unit": "nM"}, {"measurement": "IC50", "setting": "JAK2; [3]", "result": 7.07, "unit": "nM"}]}, {"smiles": "Cc1ccc(C2(C(=O)N3CCN(c4nc(Nc5cc(C)[nH]n5)c5cccn5n4)CC3)CC2)cc1", "note": "[Example 187, 2-(4-((1-(4-methylphenyl)cyclopropyl)carbonyl)-1-piperazinyl)-N-(5-methyl-1H-pyrazol-3-yl)pyrrolo[2,1-f][1,2,4]triazin-4-amine]", "values": [{"measurement": "IC50", "setting": "JAK3 [2]", "result": 200, "unit": "nM"}, {"measurement": "IC50", "setting": "JAK2; [3]", "result": 6.83, "unit": "nM"}]}, {"smiles": "Cc1cc(Nc2nc(N3CCN(C(=O)c4ccccc4S(C)(=O)=O)CC3)nn3cccc23)n[nH]1", "note": "[Example 193, N-(5-methyl-1H-pyrazol-3-yl)-2-(4-(2-(methylsulfonyl)benzoyl)-1-piperazinyl)pyrrolo[2,1-f][1,2,4]triazin-4-amine]", "values": [{"measurement": "IC50", "setting": "JAK3 [2]", "result": 3050, "unit": "nM"}, {"measurement": "IC50", "setting": "JAK2; [3]", "result": 130, "unit": "nM"}]}, {"smiles": "Cc1cc(Nc2nc(N3CCN(C(=O)c4ccccc4-c4ccccc4)CC3)nn3cccc23)n[nH]1", "note": "[Example 200, 2-(4-(2-biphenylylcarbonyl)-1-piperazinyl)-N-(5-methyl-1H-pyrazol-3-yl)pyrrolo[2,1-f][1,2,4]triazin-4-amine]", "values": [{"measurement": "IC50", "setting": "JAK3 [2]", "result": 120, "unit": "nM"}, {"measurement": "IC50", "setting": "JAK2; [3]", "result": 7.25, "unit": "nM"}]}, {"smiles": "Cc1cc(Nc2nc(N3CCN(C(=O)[C@@](C)(O)c4ccccc4)CC3)nn3cccc23)n[nH]1", "note": "[Example 211, (2S)-1-(4-(4-((5-methyl-1H-pyrazol-3-yl)amino)pyrrolo[2,1-f][1,2,4]triazin-2-yl)-1-piperazinyl)-1-oxo-2-phenyl-2-propanol]", "values": [{"measurement": "IC50", "setting": "JAK3 [2]", "result": 9480, "unit": "nM"}, {"measurement": "IC50", "setting": "JAK2; [3]", "result": 590, "unit": "nM"}]}]}
